Reference: patent EP4640240A1, “PEPTIDE-BASED RADIOPHARMACEUTICALS FOR NON-INVASIVE IMAGING OF THE FUNCTIONAL LIVER RESERVE” (Medizinische Universität Innsbruck, priority 2024, dated 2025)
Read-outs that look alike come from different tables or passages of the source.

Legend:
[1] = Partition coefficient logD (n-octanol/PBS); format: physicochemical; conditions: n=6
Protocol: For determination of logarithmic partition coefficients (logD) n-Octanol (500 µL) and PBS (500 µL) were pipetted into eight 1.5 mL Protein Low-Bind Eppendorf tubes followed by addition of 300 kBq of labelled compound. The vials were vortexed for 5 min at 1,500 1/min and then centrifuged for 5 min at 20,000 rcf (Eppendorf Centrifuge 5424). Aliquots of 100 µL were taken out of each phase and the amount of activity was quantified in a γ-counter (Perkin Elmer 2480 Wizard2 3"; Waltham, Massachusetts, USA).

[2] = Protein binding in human serum (MicroSpin G-50 columns); format: in vitro ADME; conditions: fresh human serum, 37 °C, n=3
Protocol: Protein binding was determined for different time points (2 min, 30 min, 60 min, 120 min) in triplicates using Sephadex MicroSpin G-50 columns (GE-Healthcare, Chicago, Illinois, USA). The columns were spun initially at 20,000 rcf for 1 min to remove the storage buffer. Then approx. 5 MBq of radioligand was added to 1 mL of fresh human serum and incubated at 37 °C. At each given timepoint 25 µL of the mixture was loaded on to the column, which was then spun at 20,000 rcf for 1 min. The activity content on the column (free radioligand) and in the filtrate (protein bound fraction) was quantified in a γ-counter.

[3] = Stability in human blood serum (radio-HPLC); format: in vitro ADME; conditions: 37 °C; for Serum stability (% of intact ligand): n=2; for remaining at 1 h: 60 min
Protocol: Ligand stability in human blood serum (n = 2) and PBS (pH = 6.5) (n = 1) was determined for different time points (2 min, 30 min, 60 min, 120 min). Therefore, approx. 5 MBq of radioligand was added to 1 mL of fresh human serum at 37 °C or PBS at rt. At each given time point 100 µL of the mixture were transferred to a 1.5 mL Eppendorf tube containing 100 µL of acetonitrile. The vial was vortexed and centrifuged for 2 min at 14,000 1/min before 100 µL of the supernatant were diluted with 200 µL of water and injected into analytical radio-HPLC. The PBS solution was directly injected into the radio-HPLC. Ligand stability was determined by integrating the areas of the signals in the radio chromatogram in relation to the signal of the intact ligand.

[4] = Biodistribution studies in BALB/c mice; format: in vivo; conditions: for tissue uptake at 10 min / tissue uptake at 0.5 h / tissue uptake at 1 h: female, mouse, iv, total radioactivity, healthy BALB/c mice, 0.1 nmol i.v.; for tissue uptake at 10 min: 10 min p.i.; for tissue uptake at 0.5 h: 30 min p.i.; for tissue uptake at 1 h: 60 min p.i.
Protocol: For biodistribution studies 6-week-old female BALB/c mice (n=3) were injected with 0.1 nmol (100 µL, approx. 1 MBq) of labelled compound via the lateral tail vein and sacrificed after 10, 30, or 60 min by cervical dislocation. The mice were dissected, blood and organs (spleen, pancreas, stomach, intestine, liver, kidney, heart, lung, muscle and bone) were weighed and their activity measured in a γ-counter. For blocking experiments, mice were co-injected with 27.7 µmοl N-acetylgalactose.

[5] = n=2, read-out: Serum stability (% of intact ligand)
[6] = Blood, read-out: Biodistribution data, Blood
[7] = Femur, read-out: Biodistribution data, Femur
[8] = Heart, read-out: Biodistribution data, Heart
[9] = Intestine, read-out: Biodistribution data, Intestine
[10] = Kidneys, read-out: Biodistribution data, Kidneys
[11] = Liver, read-out: Biodistribution data, Liver
[12] = Lung, read-out: Biodistribution data, Lung
[13] = Muscle, read-out: Biodistribution data, Muscle
[14] = Pancreas, read-out: Biodistribution data, Pancreas
[15] = Spleen, read-out: Biodistribution data, Spleen
[16] = Stomach, read-out: Biodistribution data, Stomach

In the case of `NC(=O)CNC(=O)CNC(=O)[C@H](CCCCNC(=O)CCCCc1cn(C2O[C@H](CO)[C@H](O)[C@H](O)[C@H]2O)nn1)NC(=O)CNC(=O)CNC(=O)[C@H](CCCCNC(=O)CCCCc1cn(C2O[C@H](CO)[C@H](O)[C@H](O)[C@H]2O)nn1)NC(=O)CNC(=O)CNC(=O)[C@H](CCCCNC(=O)CCCCc1cn(C2O[C@H](CO)[C@H](O)[C@H](O)[C@H]2O)nn1)NC(=O)CNC(=O)CNC(=O)[C@H](CCCCNC(=O)CCCCc1cn(C2O[C@H](CO)[C@H](O)[C@H](O)[C@H]2O)nn1)NC(=O)CNC(=O)CNC(=O)[C@H](CCCCNC(=O)CCCCc1cn(C2O[C@H](CO)[C@H](O)[C@H](O)[C@H]2O)nn1)NC(=O)CNC(=O)CNC(=O)[C@H](CCCCNC(=O)CCCCc1cn(C2O[C@H](CO)[C@H](O)[C@H](O)[C@H]2O)nn1)NC(=O)CCCNC(=O)CC[C@H](C(=O)O)N1CCN(CC(=O)O)CCN(CC(=O)O)CC1` (stereo partly shown) [[68Ga]Ga-HexaLysan, metal not drawn], the logD [1] is reported as -4.34 ± 0.13, the fraction unbound ([2]; 2 min) is reported as 0.824 and the fraction unbound ([2]; 30 min) is reported as 0.782. It also gave a fraction unbound ([2]; 60 min) of 0.82, a fraction unbound at 120 min, 5 MBq/mL ([2]; 120 min) of 0.748 and a remaining at 2 min [3, 5] of 99.4 ± 0.2%. The “Serum stability (% of intact ligand)” value ([3]; 30 min) was 99.7 ± 0.1%, the remaining at 1 h [3, 5] was 99.9 ± 0.1% and the remaining at 2 h ([3]; 120 min, n=2, read-out: Serum stability (% of intact ligand)) was 99.9 ± 0.1%. The tissue uptake at 10 min [4, 6] was 2.1 ± 0.04 %ID/g, the tissue uptake at 0.5 h [4, 6] was 0.63 ± 0.07 %ID/g and the tissue uptake at 1 h [4, 6] was 1.05 ± 0.41 %ID/g. The tissue uptake at 10 min [4, 7] was 0.48 ± 0.06 %ID/g, the tissue uptake at 0.5 h [4, 7] was 0.33 ± 0.03 %ID/g and the tissue uptake at 1 h [4, 7] was 0.002 ± 0.001 %ID/g. For the same compound, the tissue uptake at 10 min [4, 8] was 0.94 ± 0.05 %ID/g, the tissue uptake at 0.5 h [4, 8] was 0.37 ± 0.09 %ID/g and the tissue uptake at 1 h [4, 8] was 0.25 ± 0.02 %ID/g. The tissue uptake at 10 min [4, 9] was 1.19 ± 0.25 %ID/g, the tissue uptake at 0.5 h [4, 9] was 3.97 ± 0.28 %ID/g and the tissue uptake at 1 h [4, 9] was 5.94 ± 1.67 %ID/g. The tissue uptake at 10 min [4, 10] was 4.83 ± 0.3 %ID/g, the tissue uptake at 0.5 h [4, 10] was 1.94 ± 0.22 %ID/g and the tissue uptake at 1 h [4, 10] was 1.34 ± 0.34 %ID/g. It also gave a tissue uptake at 10 min [4, 11] of 54.8 ± 3.02 %ID/g, a tissue uptake at 0.5 h [4, 11] of 55.5 ± 7.37 %ID/g and a tissue uptake at 1 h [4, 11] of 45.9 ± 11.8 %ID/g. The tissue uptake at 10 min [4, 12] was 1.61 ± 0.16 %ID/g, the tissue uptake at 0.5 h [4, 12] was 0.77 ± 0.11 %ID/g and the tissue uptake at 1 h [4, 12] was 0.62 ± 0.19 %ID/g. For the same compound, the tissue uptake at 10 min [4, 13] was 0.93 ± 0.12 %ID/g, the tissue uptake at 0.5 h [4, 13] was 0.57 ± 0.03 %ID/g and the tissue uptake at 1 h [4, 13] was 0.41 ± 0.04 %ID/g. It also gave a tissue uptake at 10 min [4, 14] of 0.91 ± 0.05 %ID/g, a tissue uptake at 0.5 h [4, 14] of 0.69 ± 0.12 %ID/g and a tissue uptake at 1 h [4, 14] of 0.48 ± 0.13 %ID/g. It also gave a tissue uptake at 10 min [4, 15] of 0.5 ± 0.07 %ID/g, a tissue uptake at 0.5 h [4, 15] of 0.21 ± 0.06 %ID/g and a tissue uptake at 1 h [4, 15] of 0.17 ± 0.02 %ID/g. The tissue uptake at 10 min [4, 16] was 1.29 ± 0.28 %ID/g, the tissue uptake at 0.5 h [4, 16] was 1.19 ± 0.28 %ID/g and the tissue uptake at 1 h [4, 16] was 0.4 ± 0.14 %ID/g.
With `NC(=O)CNC(=O)CNC(=O)[C@H](CCCCNC(=O)CCCCc1cn(C2O[C@H](CO)[C@H](O)[C@H](O)[C@H]2O)nn1)NC(=O)CNC(=O)CNC(=O)[C@H](CCCCNC(=O)CCCCc1cn(C2O[C@H](CO)[C@H](O)[C@H](O)[C@H]2O)nn1)NC(=O)CNC(=O)CNC(=O)[C@H](CCCCNC(=O)CCCCc1cn(C2O[C@H](CO)[C@H](O)[C@H](O)[C@H]2O)nn1)NC(=O)CCCNC(=O)CC[C@H](C(=O)O)N1CCN(CC(=O)O)CCN(CC(=O)O)CC1` (stereo partly shown) [[68Ga]Ga-TriLysan, metal not drawn] the logD [1] was -3.52 ± 0.03, the fraction unbound at 2 min, 5 MBq/mL ([2]; 2 min) was 0.82 and the fraction unbound at 30 min, 5 MBq/mL ([2]; 30 min) was 0.798. The fraction unbound at 60 min, 5 MBq/mL ([2]; 60 min) was 0.831, the fraction unbound ([2]; 120 min) was 0.857 ± 0.126 and the remaining at 2 min [3, 5] was 99.9%. For the same compound, the remaining at 0.5 h ([3]; 30 min, n=2, read-out: Serum stability (% of intact ligand)) was 99.9%, the remaining at 1 h [3, 5] was 99.9% and the “Serum stability (% of intact ligand)” value ([3]; 120 min) was 99.9 ± 0%. For the same compound, the “activity accumulation in the liver (in words)” value ([4]; BALB/c mice, comparison with ^99mTc-GSA) was “low accumulation”, the tissue uptake at 10 min [4, 6] was 3.64 ± 0.08 %ID/g and the tissue uptake at 0.5 h [4, 6] was 1.6 ± 0.17 %ID/g. The tissue uptake at 1 h [4, 6] was 0.27 ± 0.01 %ID/g, the tissue uptake at 10 min [4, 7] was 0.89 ± 0.32 %ID/g and the tissue uptake at 0.5 h [4, 7] was 0.39 ± 0.02 %ID/g. For the same compound, the tissue uptake at 1 h [4, 7] was 0.11 ± 0.01 %ID/g, the tissue uptake at 10 min [4, 8] was 1.41 ± 0.01 %ID/g and the tissue uptake at 0.5 h [4, 8] was 0.63 ± 0.04 %ID/g. For the same compound, the tissue uptake at 1 h [4, 8] was 0.15 ± 0.01 %ID/g, the tissue uptake at 10 min [4, 9] was 1.24 ± 0.26 %ID/g and the tissue uptake at 0.5 h [4, 9] was 1.13 ± 0.02 %ID/g. The tissue uptake at 1 h [4, 9] was 1.04 ± 0.26 %ID/g, the tissue uptake at 10 min [4, 10] was 7.56 ± 1.35 %ID/g and the tissue uptake at 0.5 h [4, 10] was 4.99 ± 0.02 %ID/g. For the same compound, the tissue uptake at 1 h [4, 10] was 1.99 ± 0.34 %ID/g, the tissue uptake at 10 min [4, 11] was 9.45 ± 1.58 %ID/g and the tissue uptake at 0.5 h [4, 11] was 9.44 ± 1.99 %ID/g. The tissue uptake at 1 h [4, 11] was 9.19 ± 0.27 %ID/g, the tissue uptake at 10 min [4, 12] was 2.56 ± 0.17 %ID/g and the tissue uptake at 0.5 h [4, 12] was 1.15 ± 0.11 %ID/g. The tissue uptake at 1 h [4, 12] was 0.47 ± 0.06 %ID/g, the tissue uptake at 10 min [4, 13] was 0.9 ± 0.05 %ID/g and the tissue uptake at 0.5 h [4, 13] was 0.4 ± 0.04 %ID/g. For the same compound, the tissue uptake at 1 h [4, 13] was 0.12 %ID/g, the tissue uptake at 10 min [4, 14] was 0.97 ± 0.04 %ID/g and the tissue uptake at 0.5 h [4, 14] was 0.44 %ID/g. It also gave a tissue uptake at 1 h [4, 14] of 0.17 ± 0.01 %ID/g, a tissue uptake at 10 min [4, 15] of 1 ± 0.01 %ID/g and a tissue uptake at 0.5 h [4, 15] of 0.42 ± 0.02 %ID/g. For the same compound, the tissue uptake at 1 h [4, 15] was 0.16 %ID/g, the tissue uptake at 10 min [4, 16] was 1.55 ± 0.24 %ID/g and the tissue uptake at 0.5 h [4, 16] was 0.88 ± 0.09 %ID/g. For the same compound, the tissue uptake at 1 h [4, 16] was 0.31 ± 0.05 %ID/g.
